The target in experiment [1] is T1, human BRD4 bromodomain II (Homo sapiens, UniProt O60885).
T1 construct: human BRD4 bromodomain II [based on Genbank NM_058243, residues 349-460]; host or cells: E. coli
Nature of the experiment: Bromodomain binding assay (AlphaScreen), BRD4 BDII. The essentials:
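Inhibition of acetyl-H4 peptide binding to human BRD4 bromodomains is measured by bead-based proximity (AlphaScreen) in pH 7.5 HEPES buffer containing 0.05% CHAPS and 0.1% BSA. Ten compound concentrations in 3-fold steps give competitive binding IC50s.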

The subject of experiment [2] is human SKM-1 acute myeloid leukemia cells. In words: SKM-1 antiproliferation cell-based assay (ATPlite). The procedure, abridged:
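Log-phase cells in RPMI 1640/15% FBS were seeded at 34722 cells/mL and exposed for 4 days to nine-concentration DMSO serial dilutions in triplicate. Viability was read as ATP luminescence (ATPlite 1step), and IC50 values came from variable-slope non-linear regression.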

[3] abbreviates: AlphaScreen assay, Table C2, read-out: BRD4 BDII IC50.
[4] abbreviates: Homo sapiens, SKM-1, 96 h, SKM-1 antiproliferation assay, 4 days, Table C2.
Setting [5] is: BRD4 BDII AlphaScreen assay, read-out: BRD4 BD2 IC50.
Where [6] appears, read: Homo sapiens, SKM-1, SKM-1 antiproliferation assay.

Where two headings read alike, the source gives them in different places. A value given as a limit tells only on which side of the number the result lay.

Consider `CC[C@@]1(O)CCN(c2cc(-c3cc(F)cc(-c4ccc(-n5ccn(C)c5=O)c(Cl)c4)c3O)ccn2)C1` [Example 820, (R)-1-(3-chloro-3′-(2-(3-ethyl-3-hydroxypyrrolidin-1-yl)pyridin-4-yl)-5′-fluoro-2′-hydroxy-[1,1′-biphenyl]-4-yl)-3-methyl-1H-imidazol-2(3H)-one], for which the IC50 in experiment [1] (setting [3]) lay within 1 to 10 nM. The molecule also had a GI50 in experiment [2] (setting [4]) of 0.3 to 30 nM.

As for `CC(=O)Nc1ccc(-c2cccc(-c3ccnc(N4CC[C@@H](N)C4)c3)c2O)cc1F` [Example 261, (R)-N-(3′-(2-(3-aminopyrrolidin-1-yl)pyridin-4-yl)-3-fluoro-2′-hydroxy-[1,1′-biphenyl]-4-yl)acetamide], the IC50 in experiment [1] (setting [3]) is 1 to 10 nM. The GI50 in experiment [2] (setting [4]) lay in the range of 30 to 300 nM.

With `Cn1ccn(-c2ccc(-c3cc(F)cc(-c4cnnc(N5CC[C@@](C)(O)C5)c4)c3O)cc2Cl)c1=O` [Example 832, (R)-1-(3-chloro-5′-fluoro-2′-hydroxy-3′-(6-(3-hydroxy-3-methylpyrrolidin-1-yl)pyridazin-4-yl)-[1,1′-biphenyl]-4-yl)-3-methyl-1H-imidazol-2(3H)-one], the IC50 in experiment [1] (setting [3]) is 0.01 to 1 nM. For the same molecule, in experiment [2] (setting [4]), the GI50 is 0.3 to 30 nM.

Regarding `O=C1CCCN1c1ccc(-c2c[nH]cc(-c3cccc(N4CCNCC4)c3)c2=O)cc1F` [Example 307, 3-(3-fluoro-4-(2-oxopyrrolidin-1-yl)phenyl)-5-(3-(piperazin-1-yl)phenyl)pyridin-4(1H)-one], in experiment [1] (setting [3]), the half-inhibitory concentration (IC50) was more than 100 nM. Also, in experiment [2] (setting [4]), the GI50 is not below 3000 nM.

In the case of `Cn1ccn(-c2ccc(-c3cc(F)cc(-c4cc(NS(C)(=O)=O)nc(N5CCNCC5)c4)c3O)cc2Cl)c1=O` [Example 439, N-(4-(3′-chloro-5-fluoro-2-hydroxy-4′-(3-methyl-2-oxo-2,3-dihydro-1H-imidazol-1-yl)-[1,1′-biphenyl]-3-yl)-6-(piperazin-1-yl)pyridin-2-yl)methanesulfonamide], in experiment [1] (setting [3]), the IC50 was 0.01 to 1 nM. In addition, the GI50 in experiment [2] (setting [4]) fell in the range of 30 to 300 nM.

With `Cn1ccn(-c2ccc(-c3cc(F)cc(-c4ccnc(N5CC[C@@H](C(N)=O)C5)c4)c3O)cc2Cl)c1=O` [Example 761, (R)-1-(4-(3′-chloro-5-fluoro-2-hydroxy-4′-(3-methyl-2-oxo-2,3-dihydro-1H-imidazol-1-yl)-[1,1′-biphenyl]-3-yl)pyridin-2-yl)pyrrolidine-3-carboxamide], the IC50 in experiment [1] (setting [3]) fell in the range of 1 to 10 nM. The molecule also registered a GI50 in experiment [2] (setting [4]) of 30 to 300 nM.

As for `O=c1occn1-c1ccc(-c2cc(F)cc(-c3ccnc(N4CCNCC4)c3)c2O)cc1Cl` [Example 505, 3-(3-chloro-5′-fluoro-2′-hydroxy-3′-(2-(piperazin-1-yl)pyridin-4-yl)-[1,1′-biphenyl]-4-yl)oxazol-2(3H)-one], the IC50 in experiment [1] (setting [3]) fell in the range of 1 to 10 nM. Moreover, the GI50 in experiment [2] (setting [4]) is 30 to 300 nM.

In the case of `CN1CCN(c2ccc(-c3cc(F)cc(-c4ccnc(N(C)CCN)c4)c3O)cc2Cl)C1=O` [Example 347, 1-(3′-(2-((2-aminoethyl)(methyl)amino)pyridin-4-yl)-3-chloro-5′-fluoro-2′-hydroxy-[1,1′-biphenyl]-4-yl)-3-methylimidazolidin-2-one], the IC50 in experiment [1] (setting [3]) lay within 10 to 100 nM. The molecule also gave a GI50 in experiment [2] (setting [4]) of 300 to 3000 nM.

In the case of `Cn1ccn(-c2c(Cl)cc(-c3cc(F)cc(-c4cccc(N5CCN(C(C)(C)C)CC5)c4)c3O)cc2OC2CC2)c1=O` [Example 930, 1-(3″-(4-(tert-butyl)piperazin-1-yl)-3-chloro-5-cyclopropoxy-5′-fluoro-2′-hydroxy-[1,1′:3′,1″-terphenyl]-4-yl)-3-methyl-1H-imidazol-2(3H)-one], the IC50 in experiment [1] (setting [5]) is more than 100 nM. The molecule further showed a GI50 in experiment [2] (setting [6]) of 300 to 3000 nM.

For `CSc1ncc(-c2cc(F)cc(-c3ccc(-n4ccn(C)c4=O)c(Cl)c3)c2O)cc1N1CCN(C(C)C)CC1` [Example 817, 1-(3-chloro-5′-fluoro-2′-hydroxy-3′-(5-(4-isopropylpiperazin-1-yl)-6-(methylthio)pyridin-3-yl)-[1,1′-biphenyl]-4-yl)-3-methyl-1H-imidazol-2(3H)-one], the IC50 in experiment [1] (setting [3]) fell in the range of 1 to 10 nM. Further, the GI50 in experiment [2] (setting [4]) fell in the range of 0.3 to 30 nM.

As to `COc1ncc(-c2cc(F)cc(-c3ccc(-n4ccn(C)c4=O)c(Cl)c3)c2O)cc1N1CC(C)(C)[C@@](C)(O)C1` [Example 872], the half-maximal inhibitory concentration (IC50) in experiment [1] (setting [5]) was 0.01 to 1 nM. The same molecule came in with a GI50 in experiment [2] (setting [6]) of 30 to 300 nM.

With `Cn1ccn(-c2ccc(-c3cc(F)cc(-c4cccc(C5(N)CC5)c4)c3O)cc2Cl)c1=O` [Example 803, 1-(3″-(1-aminocyclopropyl)-3-chloro-5′-fluoro-2′-hydroxy-[1,1′:3′,1″-terphenyl]-4-yl)-3-methyl-1H-imidazol-2(3H)-one], the half-maximal inhibitory concentration (IC50) in experiment [1] (setting [3]) was 1 to 10 nM. This molecule also had a GI50 in experiment [2] (setting [4]) of 30 to 300 nM.

Turning to `Cn1ccn(-c2ccc(-c3cc(F)cc(-c4ccc(OC5CCNCC5)nc4)c3O)cc2Cl)c1=O` [Example 445, 1-(3-chloro-5′-fluoro-2′-hydroxy-3′-(6-(piperidin-4-yloxy)pyridin-3-yl)-[1,1′-biphenyl]-4-yl)-3-methyl-1H-imidazol-2(3H)-one], the IC50 in experiment [1] (setting [3]) is 1 to 10 nM. The molecule further came in with a GI50 in experiment [2] (setting [4]) of 300 to 3000 nM.

With `Cn1ncn(-c2ccc(-c3cc(F)cc(-c4ccnc(N5CCNCC5)c4)c3O)cc2Cl)c1=O` [Example 462, 4-(3-chloro-5′-fluoro-2′-hydroxy-3′-(2-(piperazin-1-yl)pyridin-4-yl)-[1,1′-biphenyl]-4-yl)-1-methyl-1H-1,2,4-triazol-5(4H)-one], in experiment [1] (setting [3]), the IC50 fell in the range of 1 to 10 nM. The same molecule registered a GI50 in experiment [2] (setting [4]) of 30 to 300 nM.

Regarding `Cn1ccn(-c2ccc(-c3cc(F)cc(-c4cnnc(N5CC[C@](C)(O)C5)c4)c3O)cc2Cl)c1=O` [Example 837, (S)-1-(3-chloro-5′-fluoro-2′-hydroxy-3′-(6-(3-hydroxy-3-methylpyrrolidin-1-yl)pyridazin-4-yl)-[1,1′-biphenyl]-4-yl)-3-methyl-1H-imidazol-2(3H)-one], the IC50 in experiment [1] (setting [3]) was 0.01 to 1 nM. The molecule also registered a GI50 in experiment [2] (setting [4]) of 30 to 300 nM.

As to `Cn1ccn(-c2ccc(-c3cc(F)cc(-c4ccnc(N5CCC(C)(NC(=O)OC(C)(C)C)C5)c4)c3O)cc2Cl)c1=O` (stereo not drawn) [Example 776, tert-butyl (1-(4-(3′-chloro-5-fluoro-2-hydroxy-4′-(3-methyl-2-oxo-2,3-dihydro-1H-imidazol-1-yl)-[1,1′-biphenyl]-3-yl)pyridin-2-yl)-3-methylpyrrolidin-3-yl)carbamate], the IC50 in experiment [1] (setting [3]) lay in the range of 10 to 100 nM. In experiment [2] (setting [4]), this molecule showed a concentration for 50% growth inhibition (GI50) of 30 to 300 nM.

Consider `CN1CCN(c2ccc(-c3cc(F)cc(-c4cnc(CO)c(N5CCNCC5)c4)c3O)cc2Cl)C1=O` [Example 387, 1-(3-chloro-5′-fluoro-2′-hydroxy-3′-(6-(hydroxymethyl)-5-(piperazin-1-yl)pyridin-3-yl)-[1,1′-biphenyl]-4-yl)-3-methylimidazolidin-2-one], for which the IC50 in experiment [1] (setting [3]) lay within 1 to 10 nM. The same molecule had a GI50 in experiment [2] (setting [4]) of 30 to 300 nM.

Regarding `CNCc1n[nH]c2ccc(-c3cc(F)cc(-c4ccc(-n5ccn(C)c5=O)c(Cl)c4)c3O)cc12` [Example 494, 1-(3-chloro-5′-fluoro-2′-hydroxy-3′-(3-((methylamino)methyl)-1H-indazol-5-yl)-[1,1′-biphenyl]-4-yl)-3-methyl-1H-imidazol-2(3H)-one], the IC50 in experiment [1] (setting [3]) lay in the range of 1 to 10 nM. The GI50 in experiment [2] (setting [4]) lay in the range of 30 to 300 nM.

Take `CN(C)C1(C)CCN(c2cc(-c3cc(F)cc(-c4ccc(-n5ccn(C)c5=O)c(Cl)c4)c3O)ccn2)C1` (stereo not drawn) [Example 741, 1-(3-chloro-3′-(2-(3-(dimethylamino)-3-methylpyrrolidin-1-yl)pyridin-4-yl)-5′-fluoro-2′-hydroxy-[1,1′-biphenyl]-4-yl)-3-methyl-1H-imidazol-2(3H)-one]: the IC50 in experiment [1] (setting [3]) was in the range of 0.01 to 1 nM. In experiment [2] (setting [4]), this molecule had a GI50 of 0.3 to 30 nM.

For `CN(C)[C@H]1CCN(c2cncc(-c3cc(F)cc(-c4ccc(-n5ccn(C)c5=O)c(Cl)c4)c3O)c2)C1` [Example 475, (S)-1-(3-chloro-3′-(5-(3-(dimethylamino)pyrrolidin-1-yl)pyridin-3-yl)-5′-fluoro-2′-hydroxy-[1,1′-biphenyl]-4-yl)-3-methyl-1H-imidazol-2(3H)-one], the IC50 in experiment [1] (setting [3]) lay within 0.01 to 1 nM. Besides, the GI50 in experiment [2] (setting [4]) lay in the range of 0.3 to 30 nM.

In the case of `Cn1ccn(-c2ccc(-c3cc(F)cc(-c4cncc(N5CC[C@](C)(N)C5)c4)c3O)cc2Cl)c1=O` [Example 746, (S)-1-(3′-(5-(3-amino-3-methylpyrrolidin-1-yl)pyridin-3-yl)-3-chloro-5′-fluoro-2′-hydroxy-[1,1′-biphenyl]-4-yl)-3-methyl-1H-imidazol-2(3H)-one], the IC50 in experiment [1] (setting [3]) was 0.01 to 1 nM. The GI50 in experiment [2] (setting [4]) was 0.3 to 30 nM.

For the molecule `Cn1ccn(-c2ccc(-c3cc(F)cc(-c4ccnc(N5CC6CC6(O)C5)c4)c3O)cc2Cl)c1=O` (stereo not drawn) [Example 770, 1-(3-chloro-5′-fluoro-2′-hydroxy-3′-(2-(1-hydroxy-3-azabicylco[3.1.0]hexan-3-yl)pyridin-4-yl)-[1,1′-biphenyl]-4-yl)-3-methyl-1H-imidazol-2(3H)-one], in experiment [1] (setting [3]), the IC50 lay in the range of 1 to 10 nM. The GI50 in experiment [2] (setting [4]) lay within 30 to 300 nM.

With `CN1CCN(c2ccc(-c3cc(F)cc(-c4ccnc(N5CCNCC5=O)c4)c3O)cc2Cl)C1=O` [Example 449, 1-(4-(3′-chloro-5-fluoro-2-hydroxy-4′-(3-methyl-2-oxoimidazolidin-1-yl)-[1,1′-biphenyl]-3-yl)pyridin-2-yl)piperazin-2-one], the IC50 in experiment [1] (setting [3]) lay in the range of 1 to 10 nM. Besides, the GI50 in experiment [2] (setting [4]) is 300 to 3000 nM.

Turning to `Cc1cc(-c2ccc(-n3ccn(C)c3=O)c(Cl)c2)c(O)c(-c2cc(N3CCN(C(C)(C)C)CC3)c3nccn3c2)n1` [Example 989, 1-(4-(2-(8-(4-(tert-butyl)piperazin-1-yl)imidazo[1,2-a]pyridin-6-yl)-3-hydroxy-6-methylpyridin-4-yl)-2-chlorophenyl)-3-methyl-1H-imidazol-2(3H)-one], in experiment [1] (setting [5]), the IC50 lay within 1 to 10 nM. Besides, the GI50 in experiment [2] (SKM-1 antiproliferation assay) fell in the range of 0.3 to 30 nM.

The values are drawn from US20250179059A1 (The Regents of the University of California, priority 2021, published 2025).
